The nature of this assay: Antioxidant activity assessed as second order rate constant for galvinoxyl radical scavenging activity in presence of deaerated conditions by UV-Vis spectrophotometric analysis. It counts as functional.

Structures are written as SMILES.

On to `Oc1cc(O)c2c(c1)O[C@H](c1ccc(O)c(O)c1)[C@@H](O)C2`, for which the K is 2.6 ×10¹ /mol/s.

`Oc1cc(O)c2c(c1)O[C@H](c1ccc(O)c(O)c1)[C@@H](O)[C@@H]2c1c(O)cc(O)c2c1O[C@H](c1ccc(O)c(O)c1)[C@@H](O)C2`: the K was 1 ×10² /mol/s.

Regarding `CC1(C)O[C@H]2[C@H](c3c(O)cc(O)c4c3O[C@@H]3c5cc(O)c(O)cc5C(C)(C)O[C@H]3C4)c3c(O)cc(O)cc3O[C@@H]2c2cc(O)c(O)cc21`, the K turned out to be 2.85 ×10² /mol/s.

`CC1(C)O[C@H]2Cc3c(O)cc(O)c([C@@H]4c5c(O)cc(O)cc5O[C@H](c5ccc(O)c(O)c5)[C@H]4O)c3O[C@@H]2c2cc(O)c(O)cc21`: the K amounted to 1.89 ×10² /mol/s.

For the molecule `CC1(C)O[C@H]2Cc3c(O)cc(O)cc3O[C@@H]2c2cc(O)c(O)cc21`, the K came to 1.5 ×10² /mol/s.

Values taken from ChEMBL document CHEMBL4177622, “Enhanced radical scavenging activity of a procyanidin B3 analogue comprised of a dimer of planar catechin” (Bioorg Med Chem Lett, 2017).
